The NIST ThermoML archive (doi:10.1021/je700152c)
Where “and” joins values, the source holds several entries; their conditions need not be identical. Equal entries are not always repeated.

Experiment: molar heat capacity at saturation pressure

CCCCn1cc[n+](C)c1.Cc1ccc(S(=O)(=O)[O-])cc1 [1-butyl-3-methylimidazolium tosylate]
Conditions	molar heat capacity
125.01 K, Crystal 2	211.89 J/K/mol
125.12 K, Metastable crystal	219.77 J/K/mol
125.41 K, Crystal 2	212.45 J/K/mol
126.82 K, Crystal 2	214.18 J/K/mol
126.86 K, Crystal 2	214.18 J/K/mol
126.95 K, Metastable crystal	222.38 J/K/mol
127.27 K, Crystal 2	214.65 J/K/mol
128.68 K, Crystal 2	216.45 J/K/mol
128.72 K, Crystal 2	216.36 J/K/mol
128.79 K, Metastable crystal	224.93 J/K/mol
129.12 K, Crystal 2	216.95 J/K/mol
130.54 K, Crystal 2	218.78 J/K/mol
130.57 K, Crystal 2	218.72 J/K/mol
130.63 K, Metastable crystal	227.59 J/K/mol
130.97 K, Crystal 2	219.24 J/K/mol
132.4 K, Crystal 2	221.01 J/K/mol
132.43 K, Crystal 2	221.01 J/K/mol
132.46 K, Metastable crystal	230.26 J/K/mol
132.83 K, Crystal 2	221.54 J/K/mol
134.26 K, Crystal 2	223.47 J/K/mol
134.29 K, Crystal 2	223.34 J/K/mol
134.3 K, Metastable crystal	232.84 J/K/mol
134.69 K, Crystal 2	223.96 J/K/mol
136.12 K, Crystal 2	225.86 J/K/mol
136.14 K, Metastable crystal	235.54 J/K/mol
136.15 K, Crystal 2	225.83 J/K/mol
136.55 K, Crystal 2	226.35 J/K/mol
137.98 K, Crystal 2	228.34 J/K/mol
137.98 K, Metastable crystal	238.37 J/K/mol
138.01 K, Crystal 2	228.37 J/K/mol
138.41 K, Crystal 2	228.74 J/K/mol
139.81 K, Metastable crystal	241.04 J/K/mol
139.84 K, Crystal 2	230.89 J/K/mol
139.87 K, Crystal 2	230.85 J/K/mol
140.27 K, Crystal 2	231.16 J/K/mol
141.65 K, Metastable crystal	243.74 J/K/mol
141.7 K, Crystal 2	233.49 J/K/mol
141.73 K, Crystal 2	233.37 J/K/mol
142.13 K, Crystal 2	233.8 J/K/mol
143.48 K, Metastable crystal	246.44 J/K/mol
143.56 K, Crystal 2	236.57 J/K/mol
143.59 K, Crystal 2	236.07 J/K/mol
143.98 K, Crystal 2	236.57 J/K/mol
145.31 K, Metastable crystal	249.26 J/K/mol
145.41 K, Crystal 2	240.45 J/K/mol
145.44 K, Crystal 2	238.96 J/K/mol
145.83 K, Crystal 2	239.61 J/K/mol
147.15 K, Metastable crystal	251.93 J/K/mol
147.26 K, Crystal 2	246.19 J/K/mol
147.3 K, Crystal 2	242.18 J/K/mol
147.68 K, Crystal 2	243.36 J/K/mol
148.98 K, Metastable crystal	254.72 J/K/mol
149.09 K, Crystal 2	256.71 J/K/mol
149.15 K, Crystal 2	246.16 J/K/mol
149.52 K, Crystal 2	249.76 J/K/mol
150.8 K, Metastable crystal	257.49 J/K/mol
150.89 K, Crystal 2	272.54 J/K/mol
150.98 K, Crystal 2	254.94 J/K/mol
151.34 K, Crystal 2	267.23 J/K/mol
152.63 K, Metastable crystal	260.28 J/K/mol
152.68 K, Crystal 2	270.46 J/K/mol
152.77 K, Crystal 2	286.32 J/K/mol
153.11 K, Crystal 1	287.72 J/K/mol
154.46 K, Metastable crystal	263.04 J/K/mol
154.51 K, Crystal 1	248.64 J/K/mol
154.55 K, Crystal 1	265.74 J/K/mol
154.91 K, Crystal 1	252.18 J/K/mol
156.28 K, Metastable crystal	265.84 J/K/mol
156.37 K, Crystal 1	244.36 J/K/mol
156.4 K, Crystal 1	246.87 J/K/mol
156.77 K, Crystal 1	244.82 J/K/mol
158.1 K, Metastable crystal	268.6 J/K/mol
158.25 K, Crystal 1	245.1 J/K/mol
158.27 K, Crystal 1	245.66 J/K/mol
158.64 K, Crystal 1	245.51 J/K/mol
159.92 K, Metastable crystal	271.3 J/K/mol
160.13 K, Crystal 1	246.75 J/K/mol
160.14 K, Crystal 1	247 J/K/mol
160.51 K, Crystal 1	247.09 J/K/mol
161.74 K, Metastable crystal	273.94 J/K/mol
162 K, Crystal 1	248.58 J/K/mol
162.02 K, Crystal 1	248.64 J/K/mol
162.38 K, Crystal 1	248.95 J/K/mol
163.55 K, Metastable crystal	276.55 J/K/mol
163.88 K, Crystal 1	250.47 J/K/mol
163.89 K, Crystal 1	250.47 J/K/mol
164.25 K, Crystal 1	250.81 J/K/mol
165.36 K, Metastable crystal	279.12 J/K/mol
165.76 K, Crystal 1	252.37 J/K/mol and 252.4 J/K/mol
166.12 K, Crystal 1	252.83 J/K/mol
167.18 K, Metastable crystal	281.64 J/K/mol
167.63 K, Crystal 1	254.38 J/K/mol
167.64 K, Crystal 1	254.38 J/K/mol
168 K, Crystal 1	254.82 J/K/mol
168.99 K, Metastable crystal	284.12 J/K/mol
169.51 K, Crystal 1	256.4 J/K/mol and 256.43 J/K/mol
169.87 K, Crystal 1	256.8 J/K/mol
170.8 K, Metastable crystal	286.54 J/K/mol
171.38 K, Crystal 1	258.48 J/K/mol
171.39 K, Crystal 1	258.39 J/K/mol
171.74 K, Crystal 1	258.82 J/K/mol
172.6 K, Metastable crystal	288.9 J/K/mol
173.25 K, Crystal 1	260.44 J/K/mol
173.26 K, Crystal 1	260.44 J/K/mol
173.61 K, Crystal 1	260.81 J/K/mol
174.41 K, Metastable crystal	291.14 J/K/mol
175.13 K, Crystal 1	262.42 J/K/mol and 262.45 J/K/mol
175.48 K, Crystal 1	262.89 J/K/mol
176.21 K, Metastable crystal	293.28 J/K/mol
177 K, Crystal 1	264.5 J/K/mol
177.01 K, Crystal 1	264.53 J/K/mol
177.35 K, Crystal 1	264.94 J/K/mol
178.02 K, Metastable crystal	295.36 J/K/mol
178.87 K, Crystal 1	266.49 J/K/mol and 266.55 J/K/mol
179.21 K, Crystal 1	266.96 J/K/mol
179.82 K, Metastable crystal	297.28 J/K/mol
180.74 K, Crystal 1	268.51 J/K/mol and 268.63 J/K/mol
181.08 K, Crystal 1	268.91 J/K/mol
181.62 K, Metastable crystal	299.18 J/K/mol
182.6 K, Crystal 1	270.65 J/K/mol
182.94 K, Crystal 1	270.99 J/K/mol
183.43 K, Metastable crystal	301.07 J/K/mol
184.47 K, Crystal 1	272.64 J/K/mol
184.8 K, Crystal 1	273.01 J/K/mol
185.23 K, Metastable crystal	302.81 J/K/mol
186.33 K, Crystal 1	274.72 J/K/mol
186.66 K, Crystal 1	275.06 J/K/mol
187.02 K, Metastable crystal	304.48 J/K/mol
188.19 K, Crystal 1	276.76 J/K/mol
188.51 K, Crystal 1	277.07 J/K/mol
188.82 K, Metastable crystal	306.1 J/K/mol
190.05 K, Crystal 1	278.78 J/K/mol and 278.81 J/K/mol
190.37 K, Crystal 1	279.22 J/K/mol
190.62 K, Metastable crystal	307.62 J/K/mol
191.9 K, Crystal 1	280.86 J/K/mol
191.91 K, Crystal 1	280.89 J/K/mol
192.22 K, Crystal 1	281.33 J/K/mol
192.42 K, Metastable crystal	309.11 J/K/mol
193.75 K, Crystal 1	282.97 J/K/mol
193.77 K, Crystal 1	283 J/K/mol
194.07 K, Crystal 1	283.44 J/K/mol
194.22 K, Metastable crystal	310.72 J/K/mol
195.6 K, Crystal 1	285.05 J/K/mol
195.62 K, Crystal 1	285.05 J/K/mol
195.92 K, Crystal 1	285.39 J/K/mol
196.01 K, Metastable crystal	311.96 J/K/mol
197.45 K, Crystal 1	286.95 J/K/mol
197.47 K, Crystal 1	287.13 J/K/mol
197.77 K, Crystal 1	287.47 J/K/mol
197.81 K, Metastable crystal	313.21 J/K/mol
199.3 K, Crystal 1	289.24 J/K/mol
199.32 K, Crystal 1	289.18 J/K/mol
199.61 K, Crystal 1	289.43 J/K/mol
199.61 K, Metastable crystal	314.45 J/K/mol
201.21 K, Crystal 1	291.45 J/K/mol
201.24 K, Crystal 1	291.48 J/K/mol
201.47 K, Metastable crystal	316.31 J/K/mol
201.52 K, Crystal 1	291.79 J/K/mol
203.18 K, Crystal 1	293.59 J/K/mol
203.21 K, Crystal 1	293.87 J/K/mol
203.39 K, Metastable crystal	317.86 J/K/mol
203.49 K, Crystal 1	293.96 J/K/mol
205.15 K, Crystal 1	295.85 J/K/mol
205.18 K, Crystal 1	296.01 J/K/mol
